Assays:
[1] = test system: human adipose-derived stem cells (hADSCs); assay: neurogenesis / neuronal differentiation of hADSCs judged by neuronal morphology under phase contrast microscopy; assay type: cell-based
Protocol: hADSCs were purchased from Invitrogen, also known as Life Technologies, of Carlsbad, Calif., U.S.A., and were cultured as near confluent monolayers in 100 mm culture plates within a maintenance media consisting of Complete MesenPro RS medium with growth supplement and L-glutamine obtained from Invitrogen®. The process of culturing, passage, and seeding the hADSCs is described below.
The subculture of hADSCs was performed when cell culture reached confluence. To passage hADSCs, the following procedure is used: i) aspirate the Complete MesenPRO RS medium from the cells; ii) rinse the surface area of the cell layer with Dulbecco's phosphate buffered saline (DBPS) buffer by adding the DPBS to the side of the vessel opposite the attached cell layer and rocking the vessel back and forth several times; iii) remove the DPBS by aspiration and discard; iv) detach the cells by adding a sufficient volume of pre-warmed trypsin-EDTA solution without phenol red to cover the cell layer; v) incubate at 37° C. for approximately 7 minutes; vi) observe the cells under a microscope to determine if additional incubation is needed; vii) add 3 mL of the maintenance media to the plate, mix the cell suspension, add the suspension to a 15 mL centrifuge tube and centrifuge at 210 g for 5 minutes; viii) determine the total number of cells and percent viability using a hemacytometer; ix) add Complete MesenPRO RS medium to each vessel so that the final culture volume is 0.2 mL-0.5 mL per cm^2; x) seed the cells by adding the appropriate volume of cells to each vessel and incubate at 37° C., 5% CO2 and 90% humidity; and xi) three or four days after seeding, completely remove the medium and replace with an equal volume of Complete MesenPRO RS medium.
Before seeding the passaged hADSCs on fresh culture plates, the surfaces of the culture ware are washed with sterile DPBS solution three times, followed by multiple rinses with sterile water. The first layer of coating is poly-L-ornithine. The coating is prepared by adding about 15 to about 20 μg/mL of poly-L-ornithine and incubating at 37° C. for one hour. The plate is washed three times with DPBS, 15 minutes per wash. The second layer of coating is bovine plasma fibronectin. The fibronectin is diluted in DPBS from stock to 1:1000 and 500 μL is added to each well. The plate is left at room temperature for one hour. One final wash with 500 μL per well of DPBS is performed and the plate is used immediately.
The cells were then subjected to removal and reseeded at a density of 2×10^4 cells/ml (1×10^4 cells/well) onto 24-well culture plates that contained a poly-L-ornithine and bovine plasma fibronectin coating.
Three days after seeding and priming; the culture medium was changed into neuronal differentiation medium. The culture plates were removed from the incubator and all procedures were conducted in a laminar flow hood. The culture medium was completely removed from each well. The hADSCs were then washed with sterile DPBS solution in an amount of about 1 ml per well, to remove excess culture medium. The DPBS solution was removed and replaced with neuronal differentiation medium. The formulation of the neuronal differentiation medium is such that neurogenesis would be attributed to the nutrient and not to the medium. The neuronal differentiation medium used was Neurobasal™ Medium, available from Invitrogen®, which comprises the following ingredients listed below in Table 1.
PE was added to individual wells at various concentrations in the serum-free medium. Pre-warmed serum-free medium contains Neural Basal medium with L-glutamine, 20 ng/mL of bFGF, 20 ng/mL of EGF and N2 supplement.
[…] PE in varying concentrations was tested individually and compared to the positive control, DHA, and the negative control (no treatment) under phase contrast microscopy at 24 hours, 48 hours and 96 hours. The experiments were repeated in triplicate. […]

[2] = test system: human neuronal stem cells (hNSCs); assay: neurogenesis of GFP-expressing hNSCs judged by morphological changes under inverted fluorescent microscopy; assay type: cell-based
Protocol: Briefly, hNSCs were purchased from Millipore, Bellerica, Mass., U.S.A., with genetic modification to constitutively express green fluorescent protein (“GFP”). The hNSCs were cultured on laminin coated plates as recommended by the manufacturer. Both laminin and DEME/F12 were obtained from Millipore. Laminin was diluted with DMEM/F12 to 20 μg/mL. 10 ml of diluted laminin solution was added to 10 cm tissue culture dish. Then the culture dish was incubated in a 37° C., 5% CO2 incubator overnight. Just before use, the laminin solution was aspirated and rinsed once with sterile DPBS solution. hNSCs were cultured in the ReNcell NSC maintenance medium (Millipore) supplied with 20 ng/mL bFGF and 20 ng/mL EGF in a 37° C., 5% CO2 incubator. Medium was exchanged with fresh medium containing bFGF and EGF every other day thereafter.
After hNSCs reach 80% confluence, hNSCs were ready for the differentiation experiment. Before seeding, a 96-well plate was freshly coated with 20 μg/mL laminin solution followed by a brief DPBS rinse as described above. Culture medium was removed carefully and hNSCs were dissociated within 3 ml Accutase (Millipore) in a 37° C., 5% CO2 incubator for 3 minutes. Then 5 ml of ReNcell NSC maintenance medium (Millipore) supplied with 20 ng/mL bFGF and 20 ng/mL EGF were added. The cell suspension was then transferred a sterile 15 ml conical tube and the cells were pelleted by the centrifugation at 300×g for 5 minutes. Supernatant was removed. 2 ml medium was then applied to the tube and hNSCs was resuspended thoroughly. The hNSCs were seeded on a 96-well plate at a density of 1×10^4 cell/ml (1000 cells/well, 100 μl/well).
After attaching to the culture surface, the culture medium was switched to serum-free differentiation medium in the presence of CDP-choline, or DHA, or no treatment. The serum-free differentiation medium was prepared freshly before the switching including 40 ml DMEM/F12 (Millipore), 400 μL-Glutamine at a concentration of 200 mM (Life Technologies, Carlsbad, Calif.), 400 μl B27 solution (Life Technologies, Carlsbad, Calif.), and 40 μl Heperin (Sigma-Aldrich, St. Louis, […].) solution at a concentration of 10 mg/mL.
The entire 96-well plate was placed under the Leica DMI4000B fluorescent microscopy, and images were taken with GFP filter under a microscope with UV light source.

[3] = CDP-choline of 404 (so in the source), after 72 hours

C[N+](C)(C)CCOP(=O)(O)OP(=O)([O-])OC[C@H]1O[C@@H](n2ccc(N)nc2=O)[C@H](O)[C@@H]1O [CDP-choline, cytidine diphosphate-choline]
effect to enhance neurogenesis (neurite outgrowth, morphological changes) ([1]; 5 μM, FIG. 4C): demonstrated an effect to enhance neurogenesis | length of neurite outgrowth [2, 3]: comparable to DHA at 20 μM | neurogenesis compared to no treatment [2, 3]: dramatically promoted neurogenesis

CCCCCCCCCCCCC/C=C/[C@@H](O)[C@@H](CO)NC(=O)CCCCCCC [N-octanoyl-D-threo-sphingosine]
neurogenesis ([2]; 10 μM, FIG. 5E): dramatically promoted neurogenesis

CCCCCCCCCCCCC/C=C/[C@@H](O)[C@H](CO)NC(=O)C(O)CCCCCCCCCC (stereo partly drawn) [N—(R,S)-alpha-Hydroxydodecanoyl-D-erythrosphingosine]
early neurogenesis ([1]; 40 μM, 24 hours after treating, FIG. 5B): Early neurogenesis was also, observed | effects to promote neurogenesis compared with DHA ([1]; tested at 20 and 40 μM vs DHA 10 μM, 24 hours): moderate effects to promote neurogenesis | neuronal changes in terms of morphology ([1]; tested at 20 and 40 μM, 24 hours): obvious neuronal changes in terms of morphology

O=c1ccn([C@@H]2O[C@H](CO)[C@@H](O)[C@H]2O)c(=O)[nH]1 [uridine]
early neurogenesis ([1]; 20 μM, three hours after switching to neural differentiation medium, FIG. 6B): Early neurogenesis was observed | duration of neuronal morphological changes ([1]; 0.5 mM): continued up to the 48-hour time course of the culture | effect to enhance early neurogenesis ([1]; 0.5 mM): demonstrated the strongest effect to enhance early neurogenesis | length of neurite outgrowth ([2]; 20 μM): good effects of neurogenesis | neurogenesis ([2]; 20 μM, FIG. 6C): dramatically promoted neurogenesis

lactosylceramide
neurogenesis action ([1]; 10 μM, FIG. 5D): exhibit neurogenesis action

phosphatidylethanolamine [PE]
effect to enhance neurogenesis (neuronal morphology) ([1]; 20 μM, among 10, 20 and 40 μM tested, FIGS. 2C, 2D): demonstrated the strongest effect to enhance neurogenesis

sphingomyelin
neural differentiation ([1]; 40 μM): enhanced neural differentiation of hADSCs | extensions compared to negative control ([1]; even at low concentrations (10-40 μM tested)): longer than negative control and much more numerous
